# Data taken from PMC4095795 (ChemMedChem, 2014).
# Experiments:
# [1] = tested on: purified cathepsin K; settings: read-out: IC50 against purified cathepsin K; literature value; cited from earlier work
# [2] = tested on: cathepsin K; settings: cited from earlier work
# [3] = target: T1, Recombinant cathepsin K (human) (Homo sapiens, UniProt P43235); settings: read-out: IC50 against purified human cathepsin K; parent inhibitors; identical within error under light vs. dark; cathepsin K 2 nM, Z-Gly-Pro-Arg-AMC 100 μM
# T1 sequence (P43235 115-329): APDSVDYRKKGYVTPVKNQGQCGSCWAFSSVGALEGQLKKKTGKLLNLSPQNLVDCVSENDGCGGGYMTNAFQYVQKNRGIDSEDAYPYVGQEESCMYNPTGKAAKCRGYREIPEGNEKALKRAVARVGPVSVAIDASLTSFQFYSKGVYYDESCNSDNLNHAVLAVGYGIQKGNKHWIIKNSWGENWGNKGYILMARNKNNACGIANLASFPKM
# [4] = target: T2, cathepsin K (Mus musculus, UniProt P55097); assay: Live cell cathepsin K activity staining in osteoclasts
# T2 sequence (P55097 115-329): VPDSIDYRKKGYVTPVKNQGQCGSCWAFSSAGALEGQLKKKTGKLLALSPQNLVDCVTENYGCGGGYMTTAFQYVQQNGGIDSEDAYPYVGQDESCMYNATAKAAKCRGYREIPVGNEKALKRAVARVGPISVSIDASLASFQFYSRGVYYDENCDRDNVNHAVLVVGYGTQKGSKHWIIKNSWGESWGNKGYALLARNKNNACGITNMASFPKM
# [5] = cited from earlier work
# [6] = longer than 2; cited from earlier work
# [7] = tested on: PC3 prostate carcinoma cells; assay: Cell viability, MTT assay, PC3 cells; settings: PC-3 cells, dark or irradiated, 24 h, tested 1 nM–100 μM
# [8] = tested on: bone marrow macrophages (BMMs); assay: Cell viability, MTT assay, BMM cells; settings: dark or irradiated, 24 h, tested 1 nM–100 μM
compound,measurement,setting,value
"CC(C)CC(NC(=O)OCc1ccccc1)C(=O)NCC#N (stereo not drawn) [Compound 2, Cbz-Leu-NHCH2CN, reference compound]",IC50,[1],0.035 µM
same,inhibition of cathepsin K activity in live cell assays,[2],inhibit cathepsin K activity in live cell assays
same,IC50,[3],0.036 µM
same,maximum inhibition of Z-LR-4MβNA hydrolysis,[4]; 4 under light conditions,50%
same,reduction of hydrolysis of Z-LR-4MβNA,"[4]; 10–1000 nM, dose dependent, with CA074Me 1 μM",up to 50%
"CC(C)CC(NC(=O)OCc1ccccc1)C(=O)NC(C#N)COCc1ccccc1 (stereo not drawn) [Compound 3, Cbz-Leu-Ser(OBn)-CN]",IC50,[1],0.009 µM
same,plasma stability relative to 2,[5],longer plasma stability
same,half-life in vivo relative to 2,[6],roughly 10 times
same,IC50,[3],0.028 µM
CC#N.CC#N.F[P-](F)(F)(F)(F)F.F[P-](F)(F)(F)(F)F.[Ru+2].c1ccc(-c2ccccn2)nc1.c1ccc(-c2ccccn2)nc1 [reference compound],concentrations with no effects on viability / well tolerated (MTT),[7],up to 10 μM
same,effect on Z-LR-4MβNA hydrolysis at 1000 nM,"[4]; 1000 nM, with CA074Me 1 μM",slight reduction
same,difference in inhibition between light and dark,"[4]; Z-LR-4MβNA, with CA074Me 1 μM",no difference in inhibition between light and dark experiments
same,concentrations with no effects on viability / well tolerated (MTT),[8],up to 10 μM
